Source: patent publication US6861260B2, “Lipid membrane, method for measuring membrane permeability, and method for screening” (Chugai Seiyaku Kabushiki Kaisha, priority 2000, dated 2005)
Read-outs that look alike come from different tables or passages of the source. Marks after values point to notes of the source that are not given here.

Experiments:
[1] = Artificial lipid membrane permeability measurement (96-well filter plate, absorbance); assay type: in vitro ADME; parameters: Permeability coefficient (P), Example 2 / Permeability coefficient (P), Comparative Example 1: unit: cm/s; details: 0.5 mmol/L sample; for Papp at 0.5 mmol/L: PAMPA; for Permeability coefficient (P), Comparative Example 1: membrane of Comparative Example 1 (phosphatidylcholine, cholesterol and 1,9-decadiene 2:1:97)
[2] = literature data, References *1 to *4; cited from earlier work
[3] = membrane of Example 1 (phosphatidylcholine 2, cholesterol 1, stearic acid 0.2 %, w/w in 1,7-octadiene), pH 7.0, read-out: Permeability coefficient (P), Example 1
[4] = membrane of Example 2 (phosphatidylcholine 0.75, phosphatidylethanolamine 0.75, phosphatidylserine 0.25, phosphatidylinositol 0.25, cholesterol 1 %, w/w in 1,7-octadiene), pH 6.5
[5] = membrane of Example 2 (phosphatidylcholine 0.75, phosphatidylethanolamine 0.75, phosphatidylserine 0.25, phosphatidylinositol 0.25, cholesterol 1 %, w/w in 1,7-octadiene), pH 6.5, read-out: Permeability coefficient (P), Example 2
[6] = membrane of Example 3 (phosphatidylcholine and 1,6-heptadiene 2:98), buffer pH 6.5 to pH 7.0, read-out: Permeability coefficient (P), Example 3
[7] = membrane of Example 4 (phosphatidylcholine and 1,7-octadiene 2:98), buffer pH 6.5 to pH 7.0, read-out: Permeability coefficient (P), Example 4
[8] = membrane of Example 5 (phosphatidylcholine and 1,8-nonadiene 2:98), buffer pH 6.5 to pH 7.0, read-out: Permeability coefficient (P), Example 5
[9] = membrane of Comparative Example 2 (phosphatidylcholine and 1,9-decadiene 2:98), buffer pH 6.5 to pH 7.0, read-out: Permeability coefficient (P), Comparative Example 2

Row | SMILES | Papp at 0.5 mmol/L [1, 3] | Permeability coefficient (P), Comparative Example 1 ([1]; pH 6.5) | Permeability coefficient (P), Example 2 [1, 4] | Human intestinal absorption (Fa, %) [2] | Papp at 0.5 mmol/L [1, 5] | Papp at 0.5 mmol/L [1, 6] | Papp at 0.5 mmol/L [1, 7] | Papp at 0.5 mmol/L [1, 8] | Papp at 0.5 mmol/L [1, 9]
1 | CC(C)(C)NC[C@H](O)COc1nsnc1N1CCOCC1 [Timolol] | 9.13 ×10⁻⁶ cm/s | 1.05E-06 | 1.19E-05 | 90*^1% |  |  |  |  | 
2 | CNC(=C[N+](=O)[O-])NCCSCc1ccc(CN(C)C)o1 [Ranitidine] | 1.22 ×10⁻⁶ cm/s | 1.34E-07 | 2.19E-06 |  |  |  |  |  | 
3 | O=C1CC[C@@]2(O)[C@H]3Cc4ccc(O)c5c4[C@@]2(CCN3CC2CC2)[C@H]1O5 [Naltrexone] | 11.2 ×10⁻⁶ cm/s | 9.61E-06 | 4.50E-06 |  |  |  |  |  | 
4 | N=C(N)N/N=C/c1c(Cl)cccc1Cl [Guanabenz] | 19.5 ×10⁻⁶ cm/s | 4.14E-06 | 1.04E-05 | 75*^1% |  |  |  |  | 
5 | CN(C)[C@@H]1C(O)=C(C(N)=O)C(=O)[C@@]2(O)C(O)=C3C(=O)c4c(O)cccc4[C@@](C)(O)[C@H]3[C@H](O)[C@@H]12 [Oxytetracycline] | 3.31 ×10⁻⁶ cm/s | 8.31E-07 | 5.87E-06 | 60*^3% |  |  |  |  | 
6 | CCCC(=O)Nc1ccc(OCC(O)CNC(C)C)c(C(C)=O)c1 (stereo not shown) [Acebutolol] | 4.45 ×10⁻⁶ cm/s | 1.91E-07 | 3.67E-06 | 90*^1% |  |  |  |  | 
7 | Nc1ccn([C@@H]2O[C@H](CO)[C@@H](O)[C@@H]2O)c(=O)n1 [Cytarabine] | 0.889 ×10⁻⁶ cm/s | 3.87E-08 |  |  | 0.0387 ×10⁻⁶ cm/s |  |  |  | 
8 | CC(C)NCC(O)COc1cccc2[nH]ccc12 (stereo not shown) [Pindolol] | 11 ×10⁻⁶ cm/s | 2.71E-08 | 7.94E-06 | 90*^1% |  |  |  |  | 
9 | C[C@H]1c2cccc(O)c2C(=O)C2=C(O)[C@]3(O)C(=O)C(C(N)=O)=C(O)[C@@H](N(C)C)[C@@H]3[C@@H](O)[C@@H]21 [Doxycycline] | 7.07 ×10⁻⁶ cm/s | 1.52E-06 | 2.35E-05 | 95*^3% |  |  |  |  | 
10 | CO/N=C(\C(=O)N[C@@H]1C(=O)N2C(C(=O)O)=C(COC(N)=O)CS[C@H]12)c1ccco1 [Cefuroxime] | 0.16 ×10⁻⁶ cm/s | 2.76E-08 |  | 5*^1% | 0.0443 ×10⁻⁶ cm/s |  |  |  | 
11 | CCOC(=O)[C@H](CCc1ccccc1)N[C@@H](C)C(=O)N1CCC[C@H]1C(=O)O [Enalapril] | 0.802 ×10⁻⁶ cm/s | 1.09E-06 |  | 65*^3% | 1.37 ×10⁻⁶ cm/s |  |  |  | 
12 | CC[C@H](C)C(=O)O[C@H]1C[C@H](O)C=C2C=C[C@H](C)[C@H](CC[C@@H](O)C[C@@H](O)CC(=O)O)[C@H]21 [Pravastatin] | 2.69 ×10⁻⁶ cm/s | 7.21E-08 | 6.12E-07 | 34*^1% |  |  |  |  | 
13 | CCN1CCCC1CNC(=O)c1cc(S(N)(=O)=O)ccc1OC (stereo not shown) [Sulpiride] | 1.34 ×10⁻⁶ cm/s | 8.33E-08 | 2.23E-06 |  |  |  |  |  | 
14 | CC(C)NCC(O)COc1cccc2ccccc12 (stereo not shown) [Propranolol] |  |  |  |  |  | 43.8 ×10⁻⁶ cm/s | 21.5 ×10⁻⁶ cm/s | 24.6 ×10⁻⁶ cm/s | 12.5 ×10⁻⁶ cm/s
15 | CC(C)(C)NCC(O)COc1cccc2c1CC(O)C(O)C2 (stereo not shown) [Nadolol] | 3.28 ×10⁻⁶ cm/s | 5.26E-07 |  | 35*^1% |  |  |  |  | 
16 | CO/N=C(\C(=O)N[C@@H]1C(=O)N2C(C(=O)O)=C(CSc3nc(=O)c(=O)[nH]n3C)CS[C@H]12)c1csc(N)n1 [Ceftriaxone] | 1.37 ×10⁻⁶ cm/s | 1.66E-08 | 2.25E-07 | 1*^4% |  |  |  |  | 
17 | CC(C(=O)O)c1cccc(C(=O)c2ccccc2)c1 (stereo not shown) [Ketoprofen] |  |  |  |  |  | 50.5 ×10⁻⁶ cm/s | 13.6 ×10⁻⁶ cm/s | 16.8 ×10⁻⁶ cm/s | 9.22 ×10⁻⁶ cm/s
18 | O=C(O)c1cc(/N=N/c2ccc(S(=O)(=O)Nc3ccccn3)cc2)ccc1O [Sulfasalazine] | 3.24 ×10⁻⁶ cm/s | 3.12E-07 | 1.07E-06 | 65*^1% |  |  |  |  | 
19 | CC(=O)Nc1ccc(O)cc1 [Acetaminophen] | 8.17 ×10⁻⁶ cm/s | 4.98E-08 | 1.79E-06 | 80*^1% |  |  |  |  | 
20 | CC(=O)Nc1ccc(OCC(O)CNC(C)C)cc1 (stereo not shown) [Practolol] | 1.01 ×10⁻⁶ cm/s | 4.36E-07 | 1.53E-06 |  |  |  |  |  | 
21 | NS(=O)(=O)c1cc2c(cc1Cl)NCNS2(=O)=O [Hydrochlorothiazide] | 1.34 ×10⁻⁶ cm/s | 8.64E-07 |  |  | 1.55 ×10⁻⁶ cm/s | 5.86 ×10⁻⁶ cm/s | 1.52 ×10⁻⁶ cm/s | 1.82 ×10⁻⁶ cm/s | 0.751 ×10⁻⁶ cm/s
22 | COCCc1ccc(OCC(O)CNC(C)C)cc1 (stereo not shown) [Metoprolol] | 9.42 ×10⁻⁶ cm/s | 7.49E-07 | 6.88E-06 |  |  |  |  |  | 
23 | N=C(N)NC(=O)c1nc(Cl)c(N)nc1N [Amiloride] | 2.69 ×10⁻⁶ cm/s | 6.10E-08 | 6.73E-07 | 50*^3% |  |  |  |  | 
24 | NS(=O)(=O)c1cc2c(cc1Cl)N=CNS2(=O)=O [Chlorothiazide] | 2.24 ×10⁻⁶ cm/s | 4.98E-08 | 2.71E-07 |  |  |  |  |  | 
